Five compounds from patent publication US20240174625A1, “COMPOSITIONS AND METHODS FOR TREATING TAUOPATHIES” (The Regents of the University of California, priority 2021, published 2024) can be followed below.

“Also recorded” adds a separate entry of the source.

Data set [1] is described as follows: In vivo plasma pharmacokinetics. More on the design: species or system mouse. The conditions noted are these: mice; for half life / plasma PK parameters / Cmax (maximum plasma concentration observed): 20 mg/kg i.p., compared to JMM001. The source says: (§1) Adult hTau^P301S homozygous mice (Tg2541Godt mice, a transgenic mouse model of tauopathy carrying a human Tau^P301S mutation^19 and wild-type (WT) littermates on a C57BL/6J background of both genders were used in the in vivo efficacy on Tau histopathology experiments. hTauP301S homozygous mice were obtained as gifts from Dr. Michel Goedert at MRC Laboratory of Molecular Biology, Cambridge, UK and Dr. Stanley Prusiner at UCSF, USA, and were re-derived onto a pure C57BL/6J genetic background by Dr. Prusiner's lab. Mice were periodically outcrossed with WT C57BL/6J mice (Strain #000664) from Jackson Laboratory (Bar Harbor, ME) to maintain genetic diversity. Animals were group-housed in a temperature-controlled facility (73±2° F., 45% humidity, regular 12-hour light/dark cycle, lights on at 7 AM), with food and water ad libitum. All experimental procedures were approved by the ARC administrative office at the University of California Los Angeles (UCLA) and the UCLA institutional animal care and use committee (IACUC) and followed the USDA Animal Welfare Act Regulations, the Public Health Service (PHS) Policy on Humane Care and Use of Laboratory Animals, and the Guide for the Care and Use of Laboratory Animals. Adult male WT mice on a C57BL/6J background (Strain #000664), purchased from Jackson Laboratory (Bar Harbor, ME), were used in the in vivo pharmacokinetics and blood-brain barrier penetration studies. Animals were randomly assigned to experimental groups and tested by experimenters blinded to experimental conditions.
(§2) In vivo pharmacokinetics and blood-brain barrier penetration studies are conducted at UCSD-DMPK core following their standard of operation protocols. Briefly, freshly prepared JMM compounds (e.g., JMM001, JMM013, JMM015, JMM052, JMM067, and JMM086) formulated in a vehicle (1:1:1:7 DMSO: Cremophor: Ethanol: Saline) were administered to C57BL/6J mice at 20 mg/kg systemically (i.p., i.v., or p.o.) at various time points (0, 0.5, 1, 2, 4, 8, and 24 hrs post-injection) with five mice per group. Plasma samples were collected, and compound plasma levels were measured using LC/MS. […] Brain samples are then processed following and compound concentrations in the brain sample were measured via LC/MS. Compound brain levels are normalized to the mass of brain in a unit of ng/mg.

Another data set relates to phosphorylated tau. As to the kind of experiment: Tau histopathology in hTau^P301S mouse model of tauopathy. Format: in vivo. The conditions noted are these: hTau^P301S homozygous mice; 20 mg/kg/day s.c. for 28 days; compared to vehicle.
Source text: as §1
Osmotic minipump (model #2004) were purchased from Alzet (Cupertino, CA, USA) and implanted into mice subcutaneously (s.c.) following the manufacturer's instruction, as previously described^20. Briefly, animals are placed on a thermoregulation device and anesthetized using isoflurane [4-5% (induction), 1.5-2.5% (maintenance)]. A sterile drape is used to create a sterile field for surgery after animal preparation. […] Animals are monitored observed continuously during the immediate anesthetic-recovery period until the animal is ambulatory. Animals are monitored daily after anesthetic recovery for 7 days. […]
Assessment of tau histopathological in a mouse model of tauopathy Effects of pharmacological manipulations of JMM compounds on tau histopathology were evaluated via osmotic pump chronic infusion at 20 mg/kg/day s.c. over 28 consecutive days in hTau^P301S homozygous mice or WT littermates, starting treatment at the onset of Tau histopathology (i.e., 4.2 months old age). […] Animals are weighted (g) and rectal temperature (° C.) was measured using a thermometer equipped with a mouse rectal probe (Braintree Scientific Inc., Braintree, MA) on treatment day 27. […]

A short description of data set [2]: Blood-brain barrier penetration study (brain levels). The data set is classed as in vivo, mouse. Particulars: mice, 20 mg/kg i.p., brain collected at time point of Cmax, compared to JMM001.
Source text: as §1, §2

For the compound `COc1ccc(CNc2nsc3ccccc23)cc1OC` [JMM001], the oral bioavailability entry in data set [1] (20 mg/kg i.v. or p.o.) is recorded as “high”.
For the compound `c1ccc2c(CNc3nsc4ccccc34)cccc2c1` [JMM013], the “tau histopathology in the cortex (phosphorylated tau staining)” value (“tau histopathology in the cortex” for short) in the data set on phosphorylated tau is reported as “reduced”. In data set [1], the half life result is listed as “improved” and the “plasma PK parameters” value was “improved”. In data set [2], the “brain levels (peak brain concentration)” value is on record as “improved”.
On to `c1ccc2c(c1)-c1ccccc1C2Nc1nsc2ccccc12` [JMM052], for which the “tau histopathology in the cortex” value with phosphorylated tau is recorded as “does not significantly reduce”. Besides, in data set [1], the “Cmax (maximum plasma concentration observed)” value (“Cmax” for short) is reported as “increasing” and the “plasma PK parameters” value was “improved”. Also, the half life entry in data set [1] (20 mg/kg) is “improved; also recorded: increasing”. Also, the “brain levels (peak brain concentration)” value in data set [2] (20 mg/kg) is “improved; also recorded: increasing”.
Take `CN(Cc1ccc(C(F)(F)F)cc1)c1nsc2ccccc12` [JMM067]: in data set [1], the “Cmax” value is on record as “increasing” and the “plasma PK parameters” value is recorded as “improved”. The half life entry in data set [1] (20 mg/kg) is on record as “improved; also recorded: increasing”. In addition, in data set [2] (20 mg/kg), the “brain levels (peak brain concentration)” value is on record as “improved; also recorded: increasing”.
Regarding `c1ccc(COc2ccc(CNc3nsc4ccc(OCc5ccccc5)cc34)cc2)cc1` [JMM083], the “tau histopathology in the cortex” value in the data set on phosphorylated tau was “reduced”. Further, in data set [1], the “Cmax” value was “increasing” and the “plasma PK parameters” value is “improved”. Moreover, the half life result in data set [1] (20 mg/kg) is reported as “improved; also recorded: increasing”. Besides, in data set [2] (20 mg/kg), the “brain levels (peak brain concentration)” value was “improved; also recorded: increasing”.
